Experimental data reported in patent US20250161312A1, “A METHOD FOR THE TREATMENT OF CHEMOTHERAPEUTIC DRUG-INDUCED NEPHROTOXICITY” (INSTITUT NATIONAL DE LA SANTÉ ET DE LA RECHERCHE MÉDICALE, priority 2022, published 2025).

Experiments:
RPTEC/hTERT1 cells [1] = assay: Catalase activity; type: cell-based, human; conditions: cisplatin 50 μM, KW6002 25 μM, 48 hours
Description: Catalase activity was assessed using the Catalase Colorimetric Activity Kit (Thermo Fisher Scientific) according to the manufacturer's instructions.

kidney mouse sections = assay: Red Oil staining of kidney mouse sections; type: in vivo; conditions: Red Oil staining, kidney samples
Description: (§1) FIG. 6. KW6002 alleviates the cisplatin-induced nephrotoxicity associated with apoptosis, lipid metabolism, and oxidative stress. (A) Tail moment assessed by comet assay; 50 cells/condition were analyzed. (B and C) KW6002 attenuates cisplatin-induced renal lipid accumulation, assessed by Red Oil staining. […] Results are the mean±SEM (n=6-9 mice/group). (F-H) KW6002 attenuated cisplatin-induced oxidative stress in RPTEC/hTERT1 cells. (F and G) Gene expression of Nrf2 (F) and HO1 (G). […] Results are the mean±SEM (n=3 independent experiments).
10 μm frozen kidney mouse sections were fixed with ethanol (60%) then incubated for 15 min with Oil Red O Solution (Fisher Biotech) dissolved in isopropanol. After several washes with ddH2O, samples were incubated 3 min with hematoxylin. Lipid droplets are stained in red whereas nuclei appeared blue. […] RPTEC/hTERT cells were fixed with ethanol (60%) then incubated for 15 min with Oil Red O Solution. The cells were washed three times with ddH2O and incubated 3 min with hematoxylin. Coverslips were rinsed with H2O before mounting on microscope slides using glycerol gelatin aqueous slide mounting medium (Sigma). Quantifications were performed blindly using ImageJ software. […] The resulting red color images were quantified using a custom threshold (0.173 for RPTEC/hTERT cells and 0.140 for kidney stainings).

RPTEC/hTERT1 cells [2] = assay: Comet assay in RPTEC/hTERT1 cells; type: cell-based, human; conditions: FIG. 6A
Description: as §1
Treated cells were suspended (60,000 cells/mL) in low-melt agarose (1613111, Bio-Rad) 0.5% in PBS at 42° C. The suspension was then immediately spread on a comet slide (4250-200-03, R&D Systems). Agarose was allowed to cool down for 20 minutes at 4° C. Then, cell membranes were permeabilized with a lysis solution (2.5M NaCl, 100 mM EDTA, 10 mM Tris-HCl, 1% Triton X-100 [pH 10]) at 4° C. for 1 hour. […] The images were analyzed using an ImageJ in-home macro, in which the head (the nucleus) and tail (the DNA that migrated) of the comet were delimited to get the fluorescence intensity of the head, the fluorescence intensity of the tail, and the length of the tail. The calculation of tail moments was done using the following formula: (length of the comet tail×fluorescence intensity of the tail)/total fluorescence intensity (head+tail).

C57BL6/J mice = assay: Acute cisplatin-induced kidney injury model; type: in vivo
Description: Animal procedures were performed in 8 to 10 weeks old male C57B16/J mice (Janvier Labs). Mice were fed a laboratory standard diet with water and food ad libitum and were kept under constant environmental conditions with a 12-hour light-dark cycle. […] Three days after this single injection, animals were sacrificed by cervical dislocation (FIG. 1A).
Prior sacrifice by cervical dislocation, retro-orbital blood samples were collected in heparinized tubes and centrifuged for 10 min at 2000 rpm at room temperature. Renal function was assessed by Blood urea nitrogen (BUN) measurement using a AU480 Chemistry Analyzer (Beckman Coulter). At the time of sacrifice, kidneys or LLC1 tumors were harvested and stored in either “RNA later” solution (Thermo Fisher), 4% neutral buffered formalin or snap-frozen in liquid nitrogen.
Formalin-fixed and paraffin-embedded sections (3 μm thick) were stained with Hematoxylin and Eosin (Sigma Aldrich) or Periodic Acid-Schiff (Sigma-Aldrich). Slices were scored by a nephropathologist in a blinded manner. A kidney injury score grading scale from 0 to 5 was used to assess the severity of the injury as follow: 0=no lesions, 1=minimal injury characterized by occurrence of necrosis and debris; 2=mild injury with single cell necrosis, pyknotic cells, and apoptosis; 3=moderate injury characterized by tubular distension, vacuolation, and some cellular debris, 4=severe injury with occasional hyaline casts observed, patchy epithelial necrosis in all segments, loss of epithelial lining; and 5=very severe injury characterized by extensive tubular epithelial necrosis in all segments, loss of epithelial layer from many tubules widespread intraluminal cellular debris, and frequent hyaline casts particularly prominent in the medullary region (67).
Total RNA from kidney samples was extracted with phenol/chloroform and subsequently precipitated in isopropanol as described previously (71). Total RNA from cultured renal cells was extracted using RNeasy Mini kit (Qiagen) following manufacturer's recommendations.
Reverse transcription was performed on 1 μg of RNA using high-capacity cDNA reverse transcription kit (Thermo Fisher), according the manufacturer's recommendation. Real time PCR was performed on a StepOne device using Taqman Gene Expression Master Mix (Thermo Fisher), following manufacturer's recommendations. Expression levels of the following genes were evaluated using comparative CT method (2-deltaCT): Neutrophil Gelatinase Associated Lipocalin (NGAL, Assay IDs Hs00194353_ml and Mm01324470_m1), Kidney Injury Molecule-1 (KIM-1, Assay ID Hs00273334_ml and Mm00506686_m1), Tumor Necrosis Factor alpha (TNFα, Assay ID Hs00174128_m1 and Mm00443258_m1), Interleukin-6 (I16, Assay ID Hs00174131_m1 and Mm00446190_m1), Adora2A Receptor (A2AR, Assay ID Hs00169123_m1 and Mm00802075_m1), Bcl2 associated X (Bax, Assay ID Hs00180269_m1 and Mm00432051_m1), B cell lymphoma 2 (Bcl2, Assay ID Hs00608023_m1 and Mm00477631_m1), Copper transporter receptor 1 (CTR1, Assay ID Hs00741015_m1 and Mm00612987_m1), Organic cation transporter 2 (OCT2, Assay ID Hs00533907 m1 and Mm00457295_m1), ATPase 7A (ATP7A, Assay ID Hs00163707_m1 and Mm00437663_m1), ATPase 7B (ATP7B, Assay ID Hs00163739_m1 and Mm00599675_m1), Multidrug and toxin extrusion ½ (MATE1/2, Assay ID Hs00979028 m1/Hs00945652_m1 and Assay ID Mm00840361_m1/Mm02601002_m1), ATP Binding Cassette Subfamily C Member 2 (Abcc2, Assay ID Hs00166123_m1 and Mm00496899_m1) instructions. Transcript levels of PPIA (human Hs99999904_mland mouse sample Mm02342430_m1) were used as endogenous control.

H1975 cells = assay: Immunoblot quantification in H1975 cells; type: cell-based; conditions: 20 μM cisplatin, 10 nM KW6002, 24 hours
Description: FIG. 7. […] Caspase 3/-7 activity (n=3 independent experiments) (A) and the number of γH2AX nuclear foci (n=36-63 nuclei/group) (B) were determined. […] Results are expressed as the mean±SEM (n=3 independent experiments). (E) Tail moment was assessed by comet assay. A total of 50 cells per condition were analyzed. *** P<0.001; 1-way ANOVA followed by Tukey's post hoc test. […] (I) KW6002 increased yH2AX expression in tumors from mice of the LLC1 syngeneic model. Quantification of nuclear yH2AX expression.
Cells and tissues were homogenized using RIPA buffer (Sigma) supplemented with protease and phosphatase inhibitors (Pierce). 10 μg of total proteins were heated for 10 min at 70° C. and loaded on NuPAGE Novex gels (Thermo Fisher Scientific). After transfer of proteins to nitrocellulose membranes, membranes were blocked with 5% milk in TBS-tween followed by incubation with anti-cleaved caspase 3 (1/1000; #9661, Cell Signaling) or anti-cleaved PARP1 (1/1000; #5625, Cell Signaling) primary antibodies. Visualization of protein was achieved by using horseradish peroxidase-coupled secondary antibodies (1/2000; #7074, Cell signaling). Detection signal was performed by using the ECL select chemiluminescent kit (GE Healthcare) and Image Quant LAS 4000 (GE Healthcare). Data were analyzed with Image J. Membranes were probed with anti-GAPDH (glyceraldehyde-3-phosphate deshydrogenase) antibody as normalizer (G9545, Sigma).

RPTEC/hTERT1 cells [3] = assay: Cell efflux (EFLUXX-ID) in RPTEC/hTERT1 cells; type: cell-based, human; conditions: cisplatin-treated cells, flow cytometry, FIG. 4C
Description: FIG. 4. […] (A) Platinum quantification (n=12-20/group) and relative expression of influx transporters (CTR1 and OCT2) and efflux transporters (ATP7B, MATE1, MATE2 and ABCC2; n=10-12/group) in kidney. (B) Platinum quantification (n=12-20/group) and relative expression of influx transporters (CTR1) and efflux transporters (ATP7B, MATE1, and ABCC2; n=5-6/group) in tumors. […] Results are the mean±SEM (n=3 independent experiments)
The basic cell efflux function was assessed using an EFLUXX-ID Green Multidrug Resistance Assay Kit (ENZO Life Sciences). Briefly, 2.5×10^5 cells/condition were collected, washed with PBS, and incubated with the EFLUXX-ID Green Detection Reagent for 30 minutes at 37° C., and then efflux was measured immediately by flow cytometry (CytoFLEX LX, Beckman Coulter). All experiments were performed in triplicate, with the measurement of 10,000 individual cells. Data were analyzed using Kaluza Analysis Software (Beckman Coulter).

[4] = Cumulative model of cisplatin toxicity; type: in vivo; conditions: FIG. 5
Source text: FIG. 5. […] BUN quantification.

CCn1c(=O)c2c(nc(/C=C/c3ccc(OC)c(OC)c3)n2C)n(CC)c1=O [KW-6002, 8-[(E)-2-(3,4-dimethoxyphenyl)vinyl]-1,3-diethyl-7-methyl-3,7-dihydro-1H-purine-2,6-dione]
cisplatin-induced decrease in catalase activity (RPTEC/hTERT1 cells [1]): normalized | cisplatin-induced accumulation of lipid droplets in kidney (kidney mouse sections): significantly reduced | cisplatin-induced DNA damage (tail moment) (RPTEC/hTERT1 cells [2]): inhibiting | histological lesions (histological score of renal injury) (C57BL6/J mice; A model, FIG. 2B): less severe histological lesions | mRNA levels of I16, change vs. cisplatin (C57BL6/J mice; A model, kidney): −73.8±5.3% | mRNA levels of Tnfα, change (C57BL6/J mice; A model, kidney): −36.0±4.3% | reduction of KIM-1 expression vs. cisplatin (C57BL6/J mice; A model, kidney mRNA): −95.2±0.7% | reduction of NGAL expression vs. cisplatin (C57BL6/J mice; A model, kidney mRNA): −55.5±5.9% | reduction of BUN vs. cisplatin (C57BL6/J mice; A model: cisplatin 10 mg/kg single i.p., KW-6002 3 mg/kg i.p. daily day-1 to day 2): −42.9±7.4% | apoptosis: caspase 3 (H1975 cells; FIG. 7C): did not impede the antitumoral effect of cisplatin | apoptosis: PARP (H1975 cells; FIG. 7D): even potentiated the efficacy of cisplatin | cell cycle: cyclin D1 (H1975 cells; FIG. 7G): did not impede the antitumoral effect of cisplatin | cell cycle: PCNA (H1975 cells; FIG. 7H): even potentiated the efficacy of cisplatin | efflux (RPTEC/hTERT1 cells [3]): strongly enhanced | BUN quantification, cisplatin-induced kidney injury [4]: protects from cisplatin-induced kidney injury
